The source of these data is ChEMBL document CHEMBL1124699, “3-Hydroxy-3-methylglutaryl-coenzyme A reductase inhibitors. 6. Trans-6-[2-(substituted-1-naphthyl)ethyl(or ethenyl)]-3,4,5,6-tetrahydro-4-hydroxy-2H-pyran-2-ones” (J Med Chem, 1990).

In test [1] the target is T1, 3-hydroxy-3-methylglutaryl-coenzyme A reductase (Rattus norvegicus) (UniProt P51639).
T1 sequence (whole entry): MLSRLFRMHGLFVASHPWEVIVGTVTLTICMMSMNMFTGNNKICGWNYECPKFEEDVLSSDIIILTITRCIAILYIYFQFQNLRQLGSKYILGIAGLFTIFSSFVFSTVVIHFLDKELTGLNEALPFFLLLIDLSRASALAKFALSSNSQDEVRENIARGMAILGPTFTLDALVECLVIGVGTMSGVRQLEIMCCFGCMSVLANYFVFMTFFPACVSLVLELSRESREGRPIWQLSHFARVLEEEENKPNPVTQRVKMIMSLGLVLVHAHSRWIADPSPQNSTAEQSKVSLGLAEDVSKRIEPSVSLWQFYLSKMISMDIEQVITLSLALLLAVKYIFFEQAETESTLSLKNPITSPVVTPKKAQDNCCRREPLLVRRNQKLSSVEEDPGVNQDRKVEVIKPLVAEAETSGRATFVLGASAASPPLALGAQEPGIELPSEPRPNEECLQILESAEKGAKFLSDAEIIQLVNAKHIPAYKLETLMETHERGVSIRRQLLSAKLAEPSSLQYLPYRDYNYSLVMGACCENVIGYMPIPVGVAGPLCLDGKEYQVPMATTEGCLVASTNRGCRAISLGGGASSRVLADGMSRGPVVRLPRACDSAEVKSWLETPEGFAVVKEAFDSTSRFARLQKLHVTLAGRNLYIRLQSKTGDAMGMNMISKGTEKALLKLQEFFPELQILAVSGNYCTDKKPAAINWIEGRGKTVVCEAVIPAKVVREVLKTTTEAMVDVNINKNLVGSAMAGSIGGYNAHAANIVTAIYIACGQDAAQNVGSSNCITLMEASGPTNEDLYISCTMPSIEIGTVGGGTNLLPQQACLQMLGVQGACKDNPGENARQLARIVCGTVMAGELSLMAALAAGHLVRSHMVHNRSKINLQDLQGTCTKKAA
The test is described as follows: Potency against HMG-CoA reductase relative to Compactin.

The target in test [2] is T2, 3-hydroxy-3-methylglutaryl-coenzyme A reductase (Rattus norvegicus, UniProt P51639).
T2 sequence (P51639 whole entry): T1 sequence (whole entry)
The test can be described thus: Inhibitory activity against HMG-CoA reductase.

The term IC50 denotes the concentration that gives 50% inhibition. High values mean lower potency, low ones higher potency.

Take `O=C1C[C@H](O)C[C@@H](/C=C/c2ccc(Br)c3ccccc23)O1`: in test [1], the Relative potency came out at 0.96. For the same compound, 4000 nM corresponded to half-maximal inhibition in test [2] (IC50).

In test [1], `O=C1C[C@H](O)C[C@@H](/C=C/c2c(Cl)ccc3ccccc23)O1` gave a Relative potency of 2.3. The same compound gave an IC50 in test [2] of 1510 nM.

In the case of `O=C1C[C@H](O)CC(CCc2ccc(Br)c3ccccc23)O1` (some centres undefined), in test [1], the Relative potency was 0.15. In test [2], the midpoint of inhibition, the IC50, lay at 23300 nM.

Compound `O=C1C[C@H](O)CC(CCc2c(Cl)cc(Cl)c3cc(Cl)ccc23)O1` (some centres undefined) registered a Relative potency in test [1] of 46. Also, the IC50 in test [2] is 33 nM.

In test [1], `O=C1C[C@H](O)CC(CCc2c(Cl)cc(Cl)c3ccc(Cl)cc23)O1` (some centres undefined) showed a Relative potency of 47. Besides, the IC50 in test [2] turned out to be 32 nM.

In test [1], `O=C1C[C@H](O)CC(CCc2cccc3ccccc23)O1` (some centres undefined) yielded a Relative potency of 0.043. In test [2], this compound gave an IC50 of 81000 nM.

The compound `Cc1cc(Cl)c(CCC2C[C@@H](O)CC(=O)O2)c2cc(Cl)ccc12` (some centres undefined) came in with a Relative potency in test [1] of 15. In test [2], this compound displayed an IC50 of 130 nM.

Take `Cc1cc(C)c2ccc(Cl)cc2c1CCC1C[C@@H](O)CC(=O)O1` (some centres undefined): the Relative potency in test [1] turned out to be 7. Moreover, the half-maximal inhibitory concentration (IC50) in test [2] worked out at 200 nM.

In the case of `O=C1C[C@H](O)C[C@@H](/C=C/c2cccc3cccc(Br)c23)O1`, in test [1], the Relative potency is 0.72. In test [2], this compound showed a 50% inhibitory concentration (IC50) of 4120 nM.

Turning to `Cc1ccc2c(C)cc(C)c(CCC3C[C@@H](O)CC(=O)O3)c2c1` (some centres undefined), the Relative potency in test [1] worked out at 5. For the same compound, half-maximal inhibition in test [2] (IC50) was put at 360 nM.

With `Cc1cc(Cl)c2ccc(Cl)cc2c1CCC1C[C@@H](O)CC(=O)O1` (some centres undefined), the Relative potency in test [1] stood at 30. In test [2], this compound came in with a half-maximal inhibitory concentration (IC50) of 60 nM.

In test [1], `O=C1C[C@H](O)CC(CCc2ccc(Cl)c3cc(Cl)ccc23)O1` (some centres undefined) displayed a Relative potency of 0.3. Also, the IC50 in test [2] was determined as 7000 nM.
